This is an account of results in patent publication US11065264B2, “Metal-olsalazine coordination polymers for medical applications” (THE REGENTS OF THE UNIVERSITY OF CALIFORNIA, priority 2016, dated 2021).

Series [1] can be described thus: Olsalazine release from pressed pellets under simulated gastrointestinal conditions. Format: physicochemical. As for the experimental part:
To evaluate the potential utility of Ca(H2olz).xH2O coordination solids in the treatment of ulcerative colitis (x=4, 2, and 0 for 1D, 2D, and 3D materials, respectively), each material was tested for drug release in comparison with Na2(H2olz), which is the salt used in the commercial formulation (available as Dipentum®). Each material was pressed into a pellet and exposed to solutions that mimic the pH of the stomach, small intestine, and colon. The pH and composition of the release medium was changed by addition of buffers in accordance to the expected transit times of a pill through the gastrointestinal tract: the first two hours were held at pH 1.1, the next two hours at pH 6.0, and the final six hours at pH 7.3. The vessels containing the pellet in release media were shaken at 60 rpm at 37° C. to simulate the motion and temperature of the body.
Sample pellets were prepared from pure material without binders or other agents typically used for pill preparation in the pharmaceutical industry. This was done in order to probe the properties of each material without influence from any excipients. Due to this method of preparation, however, pellets were susceptible to disintegration, which can accelerate the observed dissolution rates. […] The variability in pellet integrity likely contributed to the large observed standard deviation.
FIG. 3 is a graph of the release of olsalazine from Na2(H2olz) (circles) and Ca(H2olz).xH2O materials under simulated gastrointestinal conditions (x=4, 2, 0, denoted by squares, triangles, and diamonds, respectively). Error bars represent standard deviation across three independent data sets, where the quantity of olsalazine in solution was measured spectroscopically (λ=360 nm). The release media were changed throughout the study to emulate the typical pH and transit times of a pill passing through the stomach (pH 1.1, 2 h), small intestine (pH 6.0, 2 h), and colon (pH 7.3, 6 h).

The nature of series [2]: Content of active pharmaceutical ingredient by weight. Format: physicochemical.
The conditions of series [3]: treatment of ulcerative colitis; cited from earlier work.

Turning to `O=C(O)c1cc(/N=N/c2ccc(O)c(C(=O)O)c2)ccc1O` [Na2(H2olz), olsalazine disodium], the “amount of drug (olsalazine) released at the four-hour time point” value in series [1] (pellet without excipients, pH 1.1 2 h then pH 6.0 2 h, 37° C., 60 rpm, absorbance 360 nm) is given as “over 90%”. In addition, in series [1] (pellets of pure material without binders), the “pellet disintegration in contact with the release solution” value is “partially disintegrated”. Further, in series [1] (simulated gastrointestinal environment, pH 6.0 and above), the “rate of olsalazine release/dissolution, Na2(H2olz) compared with Ca(H2olz) materials” value was “dissolved more rapidly”. The “percentage of the active pharmaceutical ingredient (olsalazine) by weight” value in series [2] turned out to be 79%. In addition, in series [3], the “patients discontinuing treatment because of diarrhea” value is given as “over 10%” and the “patients experiencing diarrhea as a side effect” value is given as no more than 35%.
